In PubChem BioAssay AID504641 (Sanford-Burnham Center for Chemical Genomics, 2011):
Activity calls are given as the source filed them.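 How the source made its calls: active means mean IC50 at or below a set limit; inactive means the rest.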

system: 697 B-cell NF-kB luciferase reporter, PMA/ionomycin, 16 h; assay: B-cell antigen receptor NF-kB activation inhibitors, SAR follow-up, 697 B cells, luminescence, set 3 (AID 504641)

Row | SMILES | IC50
1 | CCCNC(=O)CSCc1nc(-c2ccc(SC)cc2)oc1C | > 80 µM (inactive)
2 | CC(C)(C)c1ccc(-c2noc(CCC(=O)NC3CCCCC3)n2)cc1 | 0.4 µM
3 | CCOc1ccc(-c2nc(CSCC(=O)NCc3cccnc3)c(C)o2)cc1 | 2.38 µM
4 | CCOc1ccc(-c2nc(CSCC(=O)NC(C)CC)c(C)o2)cc1 (stereo not drawn) | 46.9 µM (inactive)
5 | CC(C)(C)c1ccc(-c2noc(CCC(=O)NCC3CCCO3)n2)cc1 (stereo not drawn) | 0.59 µM
6 | CC(C)(C)c1ccc(-c2noc(CCC(=O)NCc3ccco3)n2)cc1 | 0.2 µM
7 | CC(C)(C)c1ccc(-c2noc(CCC(=O)Nc3cccc([N+](=O)[O-])c3)n2)cc1 | < 0.16 µM
8 | CCOc1ccc(-c2nc(CSCC(=O)N3CCC(C)CC3)c(C)o2)cc1 | 70.4 µM (inactive)
9 | CCOc1ccc(-c2nc(CSCC(=O)NCc3cccs3)c(C)o2)cc1 | 0.65 µM
10 | CCOc1ccc(-c2nc(CSCC(=O)NCCc3ccc(C)cc3)c(C)o2)cc1 | 18.1 µM
11 | CC(C)(C)c1ccc(-c2noc(CCC(=O)NC3CCCC3)n2)cc1 | 0.36 µM
12 | CC(C)(C)c1ccc(-c2noc(CCC(=O)Nc3cccnc3)n2)cc1 | 0.16 µM
13 | CCOc1ccccc1NC(=O)CCc1nc(-c2ccc(C(C)(C)C)cc2)no1 | < 0.16 µM
14 | CCCNC(=O)CSCc1nc(-c2ccc(OCC)cc2)oc1C | 1.51 µM
15 | CC(C)(C)c1ccc(-c2noc(CCC(=O)N3CCCCC3)n2)cc1 | 30.3 µM (inactive)
16 | CCOc1ccc(-c2nc(CSCC(=O)NC(C)C)c(C)o2)cc1 | 1.24 µM
17 | CCOc1ccc(-c2nc(CSCC(=O)NCC3CCCO3)c(C)o2)cc1 (stereo not drawn) | 7.84 µM
18 | CCOc1ccc(-c2nc(CSCC(=O)NCCc3ccccc3)c(C)o2)cc1 | 3.56 µM
19 | CCOc1ccc(-c2nc(CSCC(=O)NCc3ccc(C)cc3)c(C)o2)cc1 | 2.77 µM
20 | C=CCNC(=O)CCc1nc(-c2ccc(C(C)(C)C)cc2)no1 | 0.19 µM
21 | CNC(=O)CCc1nc(-c2ccc(C)cc2)no1 | > 80 µM (inactive)
22 | CCCCNC(=O)CSCc1nc(-c2ccc(OCC)cc2)oc1C | 8.64 µM

Row | SMILES | IC50
23 | CCOc1ccc(-c2nc(CSCC(=O)NCCOC)c(C)o2)cc1 | 0.31 µM
24 | CCOc1ccc(-c2nc(CSCC(=O)NC3CCCC3)c(C)o2)cc1 | 25.7 µM (inactive)
25 | CCOc1ccc(-c2nc(CSCC(=O)NCc3ccccc3)c(C)o2)cc1 | 6.75 µM
26 | CCOc1ccc(-c2nc(CSCC(=O)NCCC3=CCCCC3)c(C)o2)cc1 | 36.5 µM (inactive)
27 | CC(C)CNC(=O)CCc1nc(-c2ccc(C(C)(C)C)cc2)no1 | 0.24 µM
28 | CC(C)(C)c1ccc(-c2noc(CCC(=O)Nc3ccccc3)n2)cc1 | < 0.16 µM
29 | CNC(=O)CCc1nc(-c2ccc(F)cc2)no1 | > 80 µM (inactive)
30 | CNC(=O)CCc1nc(-c2ccc(OC)cc2)no1 | > 80 µM (inactive)
31 | CCOCCCNC(=O)CSCc1nc(-c2ccc(OCC)cc2)oc1C | 10.3 µM
32 | CC(C)NC(=O)CCc1nc(-c2ccc(C(C)(C)C)cc2)no1 | 0.28 µM
33 | CNC(=O)CCc1nc(-c2ccc(Cl)cc2)no1 | > 80 µM (inactive)
34 | CCOc1ccc(-c2nc(CSCC(=O)N3CCCC3)c(C)o2)cc1 | > 80 µM (inactive)
35 | CCOc1ccc(-c2noc(CCC(=O)NC)n2)cc1 | > 80 µM (inactive)
36 | CCOc1ccc(-c2nc(CSCC(=O)NCCc3ccc(Cl)cc3)c(C)o2)cc1 | > 80 µM (inactive)
37 | CC(C)(C)c1ccc(-c2noc(CCC(=O)N3CCOCC3)n2)cc1 | 24.3 µM (inactive)
38 | CCOc1ccc(-c2nc(CSCC(=O)NC3CCCC(C)C3C)c(C)o2)cc1 (stereo not drawn) | > 80 µM (inactive)
39 | CCCNC(=O)CCc1nc(-c2ccc(C(C)(C)C)cc2)no1 | 0.19 µM
40 | CSc1ccc(-c2nc(CSCC(=O)NC3CC3)c(C)o2)cc1 | 1.36 µM
41 | CCOc1ccc(-c2nc(CSCC(=O)NCCN3CCCC3)c(C)o2)cc1 | 12.1 µM
42 | COc1cccc(NC(=O)CCc2nc(-c3ccc(C(C)(C)C)cc3)no2)c1 | < 0.16 µM
43 | COc1ccccc1NC(=O)CCc1nc(-c2ccc(C(C)(C)C)cc2)no1 | < 0.16 µM
